Source: PMC7662321, “Andrographolide and Its 14-Aryloxy Analogues Inhibit Zika and Dengue Virus Infection” (Molecules, 2020)

What was measured:
[1] = MTT cytotoxicity assay in HEK293T/17 cells; assay type: cell-based; conditions: human, HEK293T/17 cells (human embryonic kidney), 24 h post-treatment
Protocol: (§1) Cytotoxicity of each compound towards cells for four selected cell lines in the range of 1 to 500 µM was evaluated using the MTT (3-(4,5-dimethylthiazol-2-yl)-2,5-diphenyltetrazolium bromide) assay at 24 h post-treatment, in parallel with control and vehicle-treated cells (0.1% dimethyl sulfoxide (DMSO)). The 50% cytotoxic concentration (CC50) values calculated from the dose-response curve (Supplementary Figures S2–S5) are shown in Table 1. Overall, a range of cytotoxicities were seen from the four compounds across the […]. The most cytotoxic combination was ZAD-1 and BHK-21 cells, while the least cytotoxic combination was andrographolide and BHK-21 cells (Table 1).
(§2) A549 cells were cultured in ninety-six-well tissue culture plates under standard conditions until the cells reached 90% confluence. The cell culture medium was removed and then cells were incubated with various concentrations of andrographolide (1–100 μM) diluted in complete medium with FBS prior to being cultured for 24 h under standard conditions before analysis using either the Vybrant MTT Cell proliferation assay kit (V13154, Invitrogen) or the alamarBlue (Thermo Fischer Scientific, Waltham, MA, USA) assay kit according to the manufacturers recommendations. Values were determined from 8 (MTT assay) or 3 (alamarBlue) independent replicates. Negative controls (only media and media with 0.1% DMSO) and positive controls (5% DMSO) were included. To determine cell number, cell cultures were trypsinized by the addition of 0.25% Trypsin/0.1% ethylelediaminetetraacetic acid (EDTA) for 3 min and then cell suspensions were diluted with 0.4% trypan blue solution. Cells were counted using a hemocytometer. Cell morphology was additionally observed under an inverted microscope after 24 h treatment with various concentrations of each compound.
Figu re S5. Cytotoxicity of ZAD -1 (A), ZA D-2 (B), ZA D-3 (C), and andro grapholide (D) to HEK293T/17 (human embryonic kidney) cells.
HEK293T/17 cells were incubated with various concentrations of each compound for 24 hrs followed by MTT cell viability assay. The experiment was undertaken independently in 4 replicates. DMSO at the same concentrations was used as a control.
10% ethanol, PBS, and milli- Q water were used as a positive control of cell death. […]

PGK1 = assay: Western blot of PGK1 expression in treated A549 cells; assay type: cell-based, human; conditions: A549, 25 µM, 24 h, normalized to GAPDH
Protocol: (§3) To confirm the 2D-gel analysis results, HSPA1A and PGK1 were selected for the validation by Western blot. The same three experimental conditions were established, namely A549 cells treated with vehicle (0.025% DMSO), 25 μM andrographolide or 25 μM ZAD-1. Glyceraldehyde-3-phosphate dehydrogenase (GAPDH) was used as a loading control and the proteins were normalized to this protein. […] While the difference in HSPA1A expression between andrographolide treatment and ZAD-1 treatment is consistent with the spot intensity data (Table 3), the spot density for the control DMSO treatment is not consistent with the western blot result.
(§4) A total of 40 µg of proteins were separated by electrophoresis through a 12% sodium dodecyl sulfate (SDS) polyacrylamide gel and transferred to a nitrocellulose membrane by electroblotting. The membranes were blocked with 5% skim milk in TBS-T (20 mM Tris, 140 mM NaCl and 0.1% Tween-20) at room temperature for 1 h with shaking. […] The signal of specific protein bands was detected using the Luminata Forte Western HRP Substrate (Millipore Corp., Burlington, MA, USA) and recorded by film autoradiography. […]

HSPA1A = assay: Western blot of HSPA1A expression in treated A549 cells; assay type: cell-based, human; conditions: A549, 25 µM, 24 h, normalized to GAPDH
Protocol: as §3, §4

[2] = MTT cytotoxicity assay in Vero cells; assay type: cell-based; conditions: African green monkey, Vero cells (monkey kidney), 24 h post-treatment
Protocol: as §1, §2
Figu re S3. Cytotoxicity of ZAD -1 (A), ZA D-2 (B), ZA D-3 (C), and andro grapholide (D) to Ve r o (monkey kidney) cells. Ve r o cells were incubated with various concentrations of each compound for 24 hrs followed by MTT cell viability assay. The experiment was undertaken independently in 4 replicates. DMSO at the same concentrations was used as a control. 10% ethanol, PBS, and milli- Q water were used as a positive control of cell death. The bars show mean ± SD. […]

With `C=C1CC[C@@H]2[C@]3(C)COC(C)(C)O[C@@H]3CC[C@@]2(C)[C@@H]1C/C=C1/C(=O)OC[C@@H]1Oc1c(Cl)cc(Cl)c2ccc(C)nc12` [ZAD-1] the CC50 at 24 h [1] was 149 ± 40 µM, the “PGK1 expression as compared to andrographolide treatment” value (PGK1) was “significantly increased expression” and the “HSPA1A expression compared with the vehicle control” value (HSPA1A) was “no significant difference from control”. For the same molecule, the CC50 at 24 h [2] was 510 ± 53 µM.
For `C=C1CC[C@@H]2[C@](C)(CO)[C@H](O)CC[C@@]2(C)[C@@H]1C/C=C1/C(=O)OC[C@H]1O` [Andrographolide], the CC50 at 24 h [1] was 294 ± 96 µM, the “PGK1 expression relative to the vehicle” value (PGK1) was “significantly upregulated” and the “HSPA1A expression compared with the vehicle control” value (HSPA1A) was “significantly increased”. It also gave a CC50 at 24 h [2] of 469 ± 73 µM.
